Data reported in ChEMBL document CHEMBL1201862, “PubChem BioAssay data set” (2004).
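Five concentrations, 48 hours, 96-well plates. The concentration for 50% growth inhibition is given as GI50.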 Calls of active or inactive are those of the source. Rule as the data show it: active = GI50 up to about 1.1 µM and inactive = higher.

What was measured:
Assay in all cases: growth of human tumour cells (NCI), 48 h
[1] = tested on: IGROV-1
[2] = tested on: PC-3
[3] = tested on: HT-29
[4] = tested on: COLO 205
[5] = tested on: OVCAR-4
[6] = tested on: BT-549
[7] = tested on: DU-145
[8] = tested on: SK-OV-3
[9] = tested on: RXF 393
[10] = tested on: NCI-H522
[11] = tested on: KM12
[12] = tested on: MDA-MB-435
[13] = tested on: CCRF-CEM
[14] = tested on: OVCAR-8
[15] = tested on: UACC-257
[16] = tested on: M14
[17] = tested on: SF-268
[18] = tested on: SF-295
[19] = tested on: UO-31
[20] = tested on: EKVX

Measured: GI50

O=C(NCCCCCCCN1CCCCCCC1)C(C1CCCCC1)C1CCCCC1
inactive: [1] 12.3 µM | [2] 8.57 µM | [3] 2.82 µM | [4] 2.81 µM | [5] 9.38 µM | [6] 14.3 µM | [7] 13.8 µM | [8] 11.3 µM | [9] 5.61 µM | [10] 14 µM | [11] 6.75 µM | [12] 7.67 µM | [13] 6.97 µM | [14] 12.3 µM | [15] 2.09 µM | [16] 2.01 µM | [17] 15.8 µM | [18] 11.4 µM | [19] 9.53 µM | [20] 4.4 µM

CC(C)(C)C1=CC(=C(c2ccc(-c3c4nc(c(-c5ccc(C(=C6C=C(C(C)(C)C)C(=O)C(C(C)(C)C)=C6)c6cc(C(C)(C)C)c(O)c(C(C)(C)C)c6)cc5)c5ccc([nH]5)c(-c5ccc(C(=C6C=C(C(C)(C)C)C(=O)C(C(C)(C)C)=C6)c6cc(C(C)(C)C)c(O)c(C(C)(C)C)c6)cc5)c5nc(c(-c6ccc(C(=C7C=C(C(C)(C)C)C(=O)C(C(C)(C)C)=C7)c7cc(C(C)(C)C)c(O)c(C(C)(C)C)c7)cc6)c6ccc3[nH]6)C=C5)C=C4)cc2)c2cc(C(C)(C)C)c(O)c(C(C)(C)C)c2)C=C(C(C)(C)C)C1=O
inactive: [1] > 100 µM | [2] > 100 µM | [3] > 100 µM | [4] > 100 µM | [5] > 100 µM | [6] > 100 µM | [7] > 100 µM | [8] > 100 µM | [9] > 70.8 µM | [10] > 100 µM | [11] > 100 µM | [12] > 100 µM | [13] > 100 µM | [14] > 100 µM | [15] > 100 µM | [16] > 100 µM | [17] > 100 µM | [18] > 100 µM | [19] > 100 µM | [20] > 100 µM

O=C1C[C@H](CCC(=O)OCc2ccccc2)NC(=O)C[C@H](CCC(=O)OCc2ccccc2)NC(=O)C[C@H](CCC(=O)OCc2ccccc2)N1
inactive: [1] 50.2 µM | [2] > 100 µM | [3] > 100 µM | [4] > 100 µM | [5] > 100 µM | [6] 24.3 µM | [7] > 100 µM | [8] 5.92 µM | [9] 2.36 µM | [10] > 100 µM | [11] > 100 µM | [12] > 100 µM | [13] > 100 µM | [14] > 100 µM | [15] > 100 µM | [16] > 100 µM | [18] 8.81 µM | [19] > 100 µM | [20] > 100 µM

NC(=O)NNCc1c(-c2ccccc2)no[n+]1[O-]
inactive: [1] > 100 µM | [2] > 100 µM | [3] > 100 µM | [4] > 100 µM | [5] > 100 µM | [6] > 100 µM | [7] > 100 µM | [8] > 100 µM | [9] > 100 µM | [10] > 100 µM | [11] > 100 µM | [12] > 100 µM | [13] > 100 µM | [14] > 100 µM | [15] > 100 µM | [16] > 100 µM | [17] > 100 µM | [18] > 100 µM | [19] > 100 µM | [20] > 100 µM

CC(=O)OCc1cn(S(=O)(=O)c2ccc(C)cc2)cn1
inactive: [1] > 100 µM | [2] > 100 µM | [3] 20.7 µM | [4] 73.6 µM | [5] > 100 µM | [6] > 100 µM | [7] > 100 µM | [8] > 100 µM | [9] > 100 µM | [10] 64 µM | [12] 19.6 µM | [13] 26.7 µM | [14] > 100 µM | [16] 25.3 µM | [17] 37.2 µM | [18] > 100 µM | [19] > 100 µM | [20] > 100 µM

C[C@H]1/C(=C/C(=O)OCCN(C)C)CC[C@H]2[C@H]1C(=O)C[C@H]1C(C)(C)[C@@H](O)CC[C@]21C
inactive: [1] > 100 µM | [2] > 100 µM | [3] > 100 µM | [4] > 100 µM | [5] > 100 µM | [6] > 100 µM | [7] > 100 µM | [8] > 100 µM | [9] > 100 µM | [10] > 100 µM | [11] > 100 µM | [12] > 100 µM | [13] > 100 µM | [14] > 100 µM | [15] > 100 µM | [16] > 100 µM | [17] > 100 µM | [18] > 100 µM | [19] > 100 µM | [20] > 100 µM

O=C(NC(Cc1c[nH]c2ccccc12)C(=O)Nc1ccc(Br)cc1)OCc1ccccc1 (configuration not stated)
inactive: [1] 9.12 µM | [2] 10.4 µM | [3] 6.19 µM | [4] 12.1 µM | [5] 9.14 µM | [6] 14.8 µM | [7] 13.3 µM | [8] 14.1 µM | [9] 9.33 µM | [10] 10.1 µM | [11] 6.31 µM | [12] 8.83 µM | [13] 3.6 µM | [14] 13.6 µM | [15] 11.3 µM | [16] 11.8 µM | [17] 12.7 µM | [18] 9.23 µM | [19] 9.1 µM | [20] 6.59 µM

O=S(=O)(O)c1cc(O)c(/N=N\C2S(=O)(=O)OCCOS2(=O)=O)c2ccccc12
inactive: [1] 37.9 µM | [2] > 100 µM | [3] > 100 µM | [4] > 100 µM | [5] > 100 µM | [6] > 100 µM | [7] > 100 µM | [8] > 100 µM | [9] > 100 µM | [10] > 100 µM | [11] > 100 µM | [12] > 100 µM | [13] 28.8 µM | [14] > 100 µM | [15] > 100 µM | [16] > 100 µM | [17] > 100 µM | [18] 51.4 µM | [19] > 100 µM | [20] > 100 µM

COc1ccc2c(c1)c1c(n2CCN2CCOCC2)-c2cccc(OC)c2CC1
inactive: [1] 43.1 µM | [2] 23.7 µM | [3] 17.1 µM | [4] 15.2 µM | [5] > 100 µM | [6] 37.2 µM | [7] 62.4 µM | [8] > 100 µM | [9] 24.2 µM | [10] 20.2 µM | [11] 20.4 µM | [12] 44 µM | [13] 18.7 µM | [14] 46.8 µM | [15] 58.5 µM | [16] 26.5 µM | [17] > 100 µM | [18] 30.7 µM | [19] 18.6 µM

COc1ccc(/C=C2\S/C(=N/Nc3nc(-c4ccccc4)cs3)NC2=O)cc1OC
inactive: [1] 12.6 µM | [2] 17.4 µM | [4] 35.6 µM | [5] 27.2 µM | [6] 24.5 µM | [7] 34 µM | [8] 21.5 µM | [9] 4.5 µM | [10] 18.5 µM | [11] 24.5 µM | [12] 25.7 µM | [13] 4.1 µM | [14] 21 µM | [15] 33.3 µM | [16] 32.4 µM | [17] 29 µM | [18] 25.3 µM | [19] 15.6 µM | [20] 22.6 µM

COC(=O)N[C@H](C(=O)O)C(C)O[Si](C)(C)C(C)(C)C (some centres not stated)
inactive: [1] > 100 µM | [2] > 100 µM | [3] > 100 µM | [4] > 100 µM | [5] > 100 µM | [6] > 100 µM | [7] > 100 µM | [8] > 100 µM | [9] > 100 µM | [10] > 100 µM | [11] > 100 µM | [12] > 100 µM | [13] > 100 µM | [14] > 100 µM | [15] > 100 µM | [17] > 100 µM | [18] > 100 µM | [19] > 100 µM | [20] > 100 µM

COc1cc2c(cc1C)NC(=O)/C2=C/c1c(Cl)n(-c2ccccc2)c2ccccc12
inactive: [1] 34.4 µM | [2] 4.41 µM | [3] 5.25 µM | [4] 5.86 µM | [6] 17.3 µM | [7] 31.8 µM | [8] 24.4 µM | [9] 11.2 µM | [10] 11.4 µM | [11] 7.31 µM | [12] 15.1 µM | [13] 4.42 µM | [14] 23.4 µM | [15] 20.5 µM | [16] 27.4 µM | [17] 20.6 µM | [18] 11.3 µM | [19] 49.2 µM | [20] 17.5 µM

CCCCCCCCCCCCCCCCOP(=O)([O-])OCC[N+](C)(C)C [MILTEFOSINE]
inactive: [1] 2.77 µM | [2] 1.56 µM | [3] 7.8 µM | [4] 5.58 µM | [5] 18.2 µM | [6] 5.35 µM | [7] 19.4 µM | [8] 8.91 µM | [9] 5.9 µM | [10] 16.4 µM | [11] 2.74 µM | [12] 17.9 µM | [14] 25.8 µM | [15] 30.6 µM | [16] 16.4 µM | [17] 22.1 µM | [18] 7.69 µM | [19] 20.6 µM | [20] 27 µM
